The test system of one series is HTM cells. Nature of the series: Intracellular ROS production, acute H2O2 injury, FACS, HTM cells. Type of series: cell-based, human. Particulars: n=4. From the text:
The percentage of intracellular ROS production compared to GTM control in GTM H2O2, D-Arg-2′,6′-Dmt-Lys-Phe-NH2 10^−6M, D-Arg-2′,6′-Dmt-Lys-Phe-NH2 10^−7M, D-Arg-2′,6′-Dmt-Lys-Phe-NH2 10^−8M groups were 146.0±2.27%, 84.5±8.75%, 102.0±5.69%, 133.0±5.17% respectively (n=3); the HTM groups were 153.0±3.46%, 79±2.39%, 91.8±3.49%, 129.0±8.24% respectively (n=4). P<0.001 GTM and HTM H2O2 Group compared to control; *** means P<0.001 compared to GTM H2O2 group; ▴ ▴ ▴ Means P<0.001 compared to HTM H2O2 group; ▴ ▴ means P<0.01 compared to HTM H2O2 group.

Series [1] concerns trabecular meshwork cells from POAG patients (GTM). Nature of the series: LDH cytotoxicity assay, GTM cells. Format: cell-based, human. From the text: In this Example, the effects of the aromatic-cationic peptides of the invention were compared between trabecular meshwork cells from POAG patients (GTM) and trabecular meshwork cells from non-diseased individuals (HTM). Methods useful in the studies of the present invention have been described. See generally, He Y, Ge J, Tombran-Tink J., Mitochondrial defects and dysfunction in calcium regulation in glaucomatous trabecular meshwork cells. Invest Ophthalmol Vis Sci. 2008, 49(11):4912-22; He Y, Leung K W, Zhang Y H, Duan S, Zhong X F, Jiang R Z, Peng Z, Tombran-Tink J, Ge J. Mitochondrial complex I defect induces ROS release and degeneration in trabecular meshwork cells of POAG patients: protection by antioxidants. Invest Ophthalmol Vis Sci. 2008, 49(4):1447-58. […]
To assess whether D-Arg-2′,6′-Dmt-Lys-Phe-NH2 had cytotoxic effects of HTM or GTM cells, various concentrations of D-Arg-2′,6′-Dmt-Lys-Phe-NH2 were administered to cells and the cytotoxicity was measured using an LDH assay. […] The assay quantitatively measures the stable, cytosolic, lactate dehydrogenase (LDH) enzyme, which is released from damaged cells. The released LDH is measured with a coupled enzymatic reaction that results in the conversion of a tetrazolium salt (iodonitrotetrazolium (INT)) into a red color formazan by diaphorase. […] The LDH activity is determined as NADH oxidation or INT reduction over a defined time period.

Series [2] deals with STZ and HFD/STZ diabetic rats. The experiment in a line: Lens epithelium changes in diabetic SD rats. Type of series: in vivo, Sprague-Dawley rat. Particulars: STZ rat model and HFD/STZ rat model. The protocol:
A rat model of diabetes was established by combination of 6-week HFD and low dose of STZ (30 mg/kg) injection or a single high dose of STZ (65 mg/kg) in SD rats. See generally, K. Srinivasan, B. Viswanad, Lydia Asrat, C. L. Kaul and P. Ramarao, Combination of high-fat diet-fed and low-dose streptozotocin-treated rat: A model for type 2 diabetes and pharmacological screening, Pharmacological Research, 52(4): 313-320, 2005. Rats of the same batch fed with normal chow (NRC) were used as a control.
The effect of the aromatic cationic peptides on lens epithelium in the SD rat model was investigated. Administration of D-Arg-2′,6′-Dmt-Lys-Phe-NH2 reduced epithelial cellular changes in both STZ rat model (FIG. 8) and HFD/STZ rat model (FIG. 9).

The subject of another series is 661W cells. The experiment in a line: tBHP-induced death of 661W cone cells. Type of series: cell-based, mouse. Particulars: different doses. The protocol: A cone cell specific line 661W was derived from a mouse retinal tumor. Methods useful in the present studies of 661W cells have been described previously. See generally, Gearóid Tuohy, Sophia Millington-Ward, Paul F. Kenna, Peter Humphries and G. Jane Farrar, Sensitivity of Photoreceptor-Derived Cell Line (661W) to Baculoviral p35, Z-VAD.FMK, and Fas-Associated Death Domain, Investigative Ophthalmology and Visual Science. 2002; 43:3583-3589. These cells were cultured to test the effects of the aromatic-cationic peptides of the invention in preventing or reducing oxidative damage in the cone cells (FIG. 27). First, it was shown that tBHP affected survival of 661W cells (FIG. 27A). Different doses of tBHP were administered to the cells for 3 h. Next, it was shown that different doses of D-Arg-2′,6′-Dmt-Lys-Phe-NH2 reduced tBHP-induced 661W cell death (FIG. 27B).

The test system of series [3] is cytochrome c release in HRECs. The experiment in a line: Cytochrome c release from mitochondria of HRECs (confocal microscopy, Western blot). Format: cell-based, human. Particulars: 30 mmol/L glucose; 24 h or 48 h. From the text: Glucose (30 mmol/L) induced cytochrome c release from the mitochondria of HRECs. Fixed HRECs were immunolabeled with a cytochrome c antibody and a mitochondrial specific protein antibody (HSP60).
A general note: In western blotting, separated proteins are transferred to a membrane and probed.

Consider D-Arg-2′,6′-Dmt-Lys-Phe-NH2, for which the “percentage of intracellular ROS production compared to control” value with HTM cells (10^−6M) is recorded as 79±2.39%; in the series with HTM cells (10^−7M), 91.8±3.49%; with HTM cells (10^−8M), 129.0±8.24%. In addition, the cytotoxicity result in series [1] (10^−4M) is “no cytotoxicity”. Also, the “viability (LDH assay)” value in series [1] (various concentrations) is given as “does not affect the viability”. Also, in series [2], the “epithelial cellular changes of the lens epithelium” value is “reduced”. Besides, the “tBHP-induced 661W cell death” value in the series with 661W cells was “reduced”. Besides, in series [3], the “translocation of cytochrome c between mitochondria and cytoplasm” value was “decrease”.

(Values after patent publication US20180296630A1, “METHODS AND COMPOSITIONS FOR PREVENTING OR TREATING OPHTHALMIC CONDITIONS” (Stealth BioTherapeutics Corp, priority 2012, published 2018).)
